Source: patent US11974969B2, “Artificially synthesized sphingosine derivative lipoid monomer and use of same for delivering nucleic acid” (INSTITUTE OF BASIC MEDICAL SCIENCES CHINESE ACADEMY OF …, priority 2018, dated 2024)

Test system: HEK293T cells
Experiment: Flow cytometry (CFlow): delivery of FAM-labeled single-stranded PGY-sRNA-6 into HEK293T cells by different concentrations of single sphingosine derivative (Example 1)
Type: cell-based, human
Conditions: for delivery of single-stranded PGY-sRNA-6 into 293T cells (fluorescence shift compared to free uptake group): different concentrations: 3.75, 12.5, 37.5 μg single lipid, 0.1 nmol FAM-labeled sRNA, final 100 nM, 9 hours, flow cytometry; for Lipid delivery group (different concentrations of lipids) 3.75 μg/mL: single sphingosine derivative 3.75 μg/mL; for Lipid delivery group (different concentrations of lipids) 3.75 μg/mL / Lipid delivery group (different concentrations of lipids) 12.5 μg/mL / Lipid delivery group (different concentrations of lipids) 37.5 μg/mL: FAM-labeled PGY-ssRNA-6 100 nM, 293T cells, fluorescence shift by flow cytometry; for Lipid delivery group (different concentrations of lipids) 12.5 μg/mL: single sphingosine derivative 12.5 μg/mL; for Lipid delivery group (different concentrations of lipids) 37.5 μg/mL: single sphingosine derivative 37.5 μg/mL
Protocol: 2.1 5 μl of small RNA (Ribobio, 20 μM, as shown in Table 2) and 95 μL of DEPC (Sigma) treated water were added into a 1.5 ml EP tube and mixed well. Then a certain amount of single lipid or lipid composition in chloroform solution (as shown in Table 1) was added and fully mixed by sucking and blowing;
2.2 The system was fully mixed and was heated in a water bath at 90° C. for 15 minutes;
2.3 The system was taken out and cooled down to room temperature.
4.3 The human embryonic kidney cell line HEK293T and human monocyte THP-1 cells used in the experiment were cultured to logarithmic growth phase, and then plated into 12-well plates with a cell density of 6×10^5/1 mL medium/well. The 12-well plate (1 mL medium/well) was incubated overnight (12 h) at 37° C., followed by subsequent experiments.
4.4 The experiment groups were as follows: • 1) Naïve group: untreated cells. This group served as a blank control group. • 2) Free uptake group: […] of 5′-FAM labeled small RNA solution (storage concentration is 20 μM) was directly added. This group served as a negative control group; • 3) Lipid nucleic acid mixture treatment group: The mixture of the lipid prepared in step 2 and the 5′-FAM-labeled small RNA was added into the cells and mixed well. The final concentration of small RNA is 100 nM.
4.5 After co-incubation with cells for 6 h/9 h, the cells were washed three times with PBS. The cells were re-suspended with PBS (self-prepared). The flow cytometer Accuri® C6 instrument (purchased from BD, US) was used to detect the fluorescence intensity of the cells in the sample wells. Implementation method: the software CFlow Plus used in the flow cytometer Accuri® C6 instrument detection was opened, the instrument was washed with cleaning solution for 3 minutes, and then washed with double-distilled water for 5 minutes. The injection of blank group samples was started while setting the number of cells unlimited. The injection of Naïve group samples was stopped when the number of cells detected was 10000 events. The live cell group in the fluorescence spectrum (abscissa: FSC-A, ordinate: SSC-A) was circled as gate P1. With the number of cells set as limited, the detection was stopped when the number of cells in gate P1 reached 10000 events. The fluorescence shift value was obtained in the fluorescence spectrum (abscissa: fluorescence channel FLA-1, ordinate: SSC-A).
1) Conditions of the boiling method: to 100 μL FAM-labeled single-stranded PGY-sRNA-6 solution was added corresponding amount of lipid solution, and heated at 90° C. for 15 min;
2) Experimental conditions: the final concentration of small RNA was 100 nM. 9 hours after being added to the cells, the amount of single-stranded PGY-sRNA-6 that entered into the cells was compared by detecting the fluorescence shift using flow cytometry technology. For the detailed protocols, see “Flow cytometry technology (CFlow) determined the uptake amount of nucleic acid that is delivered into cells by lipid”. All experiments were performed in triplicates.

Row | SMILES | delivery of single-stranded PGY-sRNA-6 into 293T cells (fluorescence shift compared to free uptake group) | Lipid delivery group (different concentrations of lipids) 3.75 μg/mL [%] | Lipid delivery group (different concentrations of lipids) 12.5 μg/mL [%] | Lipid delivery group (different concentrations of lipids) 37.5 μg/mL [%]
1 | CCCCCCCCCCCCCCCC(=O)C(N)CO.Cl (stereo not shown) [So-8, 3-keto Dihydrosphingosine] | deliver | 3.60 | 4.50 | 1.90
2 | CC(C)CCCCCCCCCCC[C@@H](O)[C@@H](N)CO [So-75, 1,3-Hexadecanediol, 2-amino-15-methyl-, D-erythro-] | deliver | 3.00 | 4.20 | 11.40
3 | CCCCCCCCCCCCC/C=C/[C@@H](O)[C@H](CO)NC(=O)CCCCCCCCCCC [So-13, N-Lauroyl-D-erythro-Sphingosine] | deliver | 3.40 | 3.20 | 5.20
4 | CCCCCCCCCCCCCCC[C@@H](O)[C@H](CO)N(C)C [So-11, N,N-dimethyl-D-erythro-Dihydrosphingosine] | deliver | 3.60 | 7.40 | 12.70
5 | CCCCCCCCCCCCC/C=C/[C@@H](O)[C@H](CO)NC(=O)CCCCCCCCCCCCCCCCCCCCCCCCCCCCCO [So-14, ω-hydroxy-C30 Sphingosine (d18:1/30:0)] | deliver | 4.40 | 3.30 | 4.30
6 | CCCCCCCCCC(=O)C(N)CO.Cl (stereo not shown) [So-72, 2-amino-1-hydroxy-3-dodecanone, monohydrochloride] | deliver | 2.40 | 3.40 | 14.10
7 | CCCCCCCCCCCCCCC[C@@H](O)[C@H](CO)NC(=O)CCCCCCC [So-12, N-octanoyl-D-erythro-Dihydrosphingosine] | deliver | 5.60 | 2.30 | 1.60
8 | CCCCCCCCCCCCC/C=C/[C@@H](O)[C@H](CO)NC(=O)CCCCCNC(=O)CCCC[C@@H]1SC[C@@H]2NC(=O)N[C@@H]21 [So-3, N-hexanoyl-biotin-D-erythro-Sphingosine] | deliver | 1.40 | 2.10 | 3.40
9 | CCCCCCCCCCCCC/C=C/[C@@H](O)[C@H](CO)NC(=O)CCCCCCCCCCCCCCCCCC [So-65, N-[(1S,2R,3E)-2-hydroxy-1-(hydroxymethyl)-3-heptadecen-1-yl]-nonadecanamide] | deliver | 7.60 | 7.50 | 6.80
10 | CCCCCCCCCCCCCC[C@@H](O)[C@@H](O)[C@@H](N)CO [So-63, 2S-amino-1,3S,4R-octadecanetriol] | deliver | 5.60 | 7.70 | 6.50
11 | CCCCCCCCCCCCCCC[C@@H](O)[C@@H](N)CO (stereo in doubt) [So-71, (2S,3R)-2-amino-1,3-Octadecanediol] | deliver | 3.60 | 6.20 | 8.80
12 | CCCCCCCCCCCCC/C=C/[C@@H](O)[C@@H](N)CO[C@@H]1OC(CO)[C@@H](O)C(O)C1O (stereo partly drawn) [So-66, D-glucosyl-β1-1′-D-erythro-sphingosine] | deliver | 7.10 | 18.10 | 29.50
13 | CCCCCCCCCCCCC/C=C/[C@H](O)[C@H](N)CO [So-70, (2R,3S,4E)-2-amino-4-octadecene-1,3-diol] | deliver | 4.70 | 10.10 | 11.40
